One experiment relates to A549. As to the kind of experiment: Cytotoxicity against human A549 cells by MTT assay. The class given is functional, cell-based. Background: Tetrazolium assays rely on reduction of a dye to a coloured formazan, in cell work by metabolically active cells.
Another experiment relates to HCT-116. Kind of experiment: Cytotoxicity against human HCT116 cells by SRB assay. Type of experiment: functional, cell-based. A general note: In SRB staining, fixed cells bind dye roughly in proportion to their protein.

The structures appear in SMILES notation.

As a reminder, the IC50 is the midpoint of a concentration-inhibition curve. A high value points to weaker potency.

Regarding `C=C(CCC=C(C)C)[C@H]1CC[C@]2(C)CCCC(=C)[C@H]2C1` [LOBOPHYTUMIN C], the figures for the IC50 with A549 and in the experiment with HCT-116 were 35.7 µM and 37.1 µM, respectively.
On to `C=C(CCC=C(C)C)[C@H]1CC[C@@]2(C)CCC=C(C)[C@@H]2C1` [LOBOPHYTUMIN D], for which the IC50 in the experiment on A549 is 36.7 µM; in the experiment on HCT-116, 35.7 µM.
The corresponding values for `COC(=O)Nc1nc2cc(C(=O)c3cccs3)ccc2[nH]1` [NOCODAZOLE] are 0.087 µM and 0.173 µM.

The values are drawn from ChEMBL document CHEMBL1833951, “Diterpenes from the Hainan soft coral Lobophytum cristatum Tixier-Durivault” (J Nat Prod, 2011).
